IC50 data for 4 compounds are collected here from ChEMBL document CHEMBL3887000, “Inhibitors of the renal outer medullary potassium channel” (2016).

pIC50: −log10 of the molar value.

Experiment [1] deals with T1, ATP-sensitive inward rectifier potassium channel 1 (Homo sapiens, UniProt P48048).
T1 sequence (P48048 whole entry): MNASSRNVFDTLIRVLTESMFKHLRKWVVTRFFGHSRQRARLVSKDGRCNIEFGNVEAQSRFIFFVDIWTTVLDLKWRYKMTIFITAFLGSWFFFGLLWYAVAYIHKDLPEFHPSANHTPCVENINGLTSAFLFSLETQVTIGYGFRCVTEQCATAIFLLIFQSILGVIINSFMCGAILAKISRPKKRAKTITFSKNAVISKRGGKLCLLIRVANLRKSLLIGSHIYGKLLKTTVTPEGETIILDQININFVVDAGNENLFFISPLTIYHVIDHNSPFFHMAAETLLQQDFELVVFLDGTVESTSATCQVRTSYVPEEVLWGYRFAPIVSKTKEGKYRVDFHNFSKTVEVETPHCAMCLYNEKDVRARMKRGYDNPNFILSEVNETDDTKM
In words: Electrophysiology Assay: Block of Kir1.1 (ROMK1) currents was examined by whole cell voltage clamp (Hamill et. al. Pfluegers Archives 391:85-100 (1981)) using the IonWorks Quattro automated electrophysiology platform (Molecular Devices, Sunnyvale, Calif.). Chinese hamster ovary cells stably expressing Kir1.1 channels were maintained in T-75 flasks in cell culture media in a humidified 10% CO2 incubator at 37° C. Prior to an experiment, Kir1.1 expression was induced by overnight incubation with 1 mM sodium butyrate. On the day of the experiment, cells were dissociated with 2.5 ml of Versene (Invitrogen 15040-066) for approximately 6 minutes at 37° C. and suspended in 10 ml of bath solution containing (in mM): 150 NaCl, 10 KCl, 2.7 CaCl2, 0.5 MgCl2, 5 HEPES, pH 7.4. After centrifugation, the cell pellet was resuspended in approximately 4.0 ml of bath solution and placed in the IonWorks instrument. The intracellular solution consisted of (in mM): 80 K gluconate, 40 KCl, 20 KF, 3.2 MgCl2, 3 EGTA, 5 Hepes, pH 7.4. Electrical access to the cytoplasm was achieved by perforation in 0.13 mg/ml amphotericin B for 4 minutes. Amphotericin B (Sigma A-4888) was prepared as a 40 mg/ml solution in DMSO. It counts as cell-based. For orientation: Patch clamp records ionic current or voltage across a cell membrane.

In experiment [2] the target is T1, ATP-sensitive inward rectifier potassium channel 1. Put plainly: Thallium Flux Assay: The ROMK channel functional thallium flux assay is performed in 384 wells, using the FLIPR-Tetra instrument. HEK-hKir1.1 cells are seeded in Poly-D-Lysine microplates and kept in a 37° C.-10% CO2 incubator overnight. On the day of the experiment, the growth media is replaced with the FluxOR reagent loading buffer and incubated, protected from light, at ambient temperature (23-25° C.) for 90 min. The loading buffer is replaced with assay buffer test compound followed by 30 min incubation at ambient temperature, where the Thallium/Potassium stimulant is added to the microplate. Step Protocol 1. Seed HEK-hKir1.1 cells (50 ul at 20,000 cells/well) in 384-well PDL coated Microplates 2. Allow cells to adhere overnight in humidified 37° C./10% CO2 incubator 3. Completely remove cell growth media from microplate and replace with 25 ul loading buffer 4. Incubate Microplate at room temperature, protected form light, for 90 min 5. Remove loading buffer and replace with 25 ul 1x Assay Buffer±test compound.Â 6. Incubate microplate at room temperature, protected form light, for 30 min 7. At FLIPR-Tetra 384: Add stimulant (Thallium/Potassium) solution to microplate and monitor fluorescence. Excitation=400 nm, Emission=460 & 580 nm. Collect data for 10 min.Â Data Calculation: The fluorescence intensity of wells containing 3 uM of a standard control ROMK inhibitor of the present invention is used to define the ROMK-sensitive component of thallium flux. Fluorescence in the presence of test compounds is normalized to control values to provide % fluorescence change.

The term pIC50 denotes the IC50 on a negative log10 scale, so that one unit is a factor of ten.

On to `Cc1c([C@@H](O)CN2CCC3(CCCN3C[C@H](O)c3ccc4c(c3C)COC4=O)C2)ccc2c1COC2=O` (stereo partly specified), for which the pIC50 in experiment [1] was 7.96; in experiment [2], 7.04.
For `Cc1c([C@@H](O)CN2CCC3(CC2)CCN(C[C@H](O)c2ccc4c(c2C)COC4=O)C3)ccc2c1COC2=O`, the pIC50 in experiment [2] is 5.92.
Consider `Cc1c([C@@H](O)CN2C(C)CC3CN(CC(O)c4ccc(C#N)cn4)CC32)ccc2c1COC2=O` (single isomer, unassigned), for which, in experiment [1], the negative logarithm of the IC50 (pIC50) was 7.41.
`Cc1c([C@@H](O)CN2CCC3CN(S(=O)(=O)c4ccc(C#N)cc4)CC32)ccc2c1COC2=O` (single isomer, unassigned): the pIC50 in experiment [1] was 7.21; in experiment [2] it was 6.40.
